Test results reported in patent US20230139445A1, “BACTERIAL CELLS WITH IMPROVED TOLERANCE TO DIACIDS” (priority 2016, published 2023).

What was measured:
[1] = system: Escherichia coli K-12 MG1655 evolved isolates and knockout mutants; experiment: Biolector growth screening of evolved isolates and reconstructed (knockout) mutants in glutaric or adipic acid; type: cell-based
Method: Biological triplicate cultures of each strain were grown to saturation overnight in 96 well deepwell plates containing 300 μL M9+1% glucose. The next day, cells were diluted 1:10 in deionized water in a clear 96 well plate and the OD600 was measured on a BioTek plate reader. 48 well FlowerPlates containing a final volume of 1.4 mL of M9+1/o glucose (plus relevant chemical) were inoculated to OD600 0.03 (with plate reader pathlength, 200 μL volume) with the overnight culture and sealed with Breathseal film. Light backscatter intensity was monitored in a Biolector microbioreactor system at 37° C. with 1000 rpm shaking.
Each re-sequenced isolate was characterized using the Biolector system for growth at the screening concentration of chemical (47.5 g/L glutaric acid or 50 g/L adipic acid) in biological triplicates.

[2] = system: Escherichia coli K-12 MG1655; experiment: Screening for tolerance in wild-type cells: growth in varying concentrations of neutralized diacid, Biolector; type: cell-based; conditions: for tlag (lag time), mean / μ (growth rate), mean: neutralized with sodium hydroxide
How it was run: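 Mid-exponential cells (back-diluted to OD600 0.7) inoculated into M9 + 1% glucose containing varying concentrations of glutaric or adipic acid neutralized to pH 7.0 with NaOH. Growth monitored in a Biolector microbioreactor at 37 °C, 1000 rpm shaking.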

[3] = strain GLUT1-3, M9 + 47.5 g/L glutaric acid (neutralized with sodium hydroxide)
[4] = strain GLUT1-3, M9 + 47.5 g/L glutaric acid (neutralized), knockout experiment (Table 14)
[5] = strain GLUT1-9, M9 + 47.5 g/L glutaric acid (neutralized with sodium hydroxide)
[6] = strain GLUT1-10, M9 + 47.5 g/L glutaric acid (neutralized with sodium hydroxide)
[7] = strain GLUT1-10, M9 + 47.5 g/L glutaric acid (neutralized), knockout experiment (Table 14)
[8] = strain GLUT2-1, M9 + 47.5 g/L glutaric acid (neutralized with sodium hydroxide)
[9] = strain GLUT2-9, M9 + 47.5 g/L glutaric acid (neutralized with sodium hydroxide)
[10] = strain GLUT2-10, M9 + 47.5 g/L glutaric acid (neutralized with sodium hydroxide)
[11] = strain GLUT3-5, M9 + 47.5 g/L glutaric acid (neutralized with sodium hydroxide)
[12] = strain GLUT3-7, M9 + 47.5 g/L glutaric acid (neutralized with sodium hydroxide)
[13] = strain GLUT3-9, M9 + 47.5 g/L glutaric acid (neutralized with sodium hydroxide)
[14] = strain GLUT4-1, M9 + 47.5 g/L glutaric acid (neutralized with sodium hydroxide)
[15] = strain GLUT4-1, M9 + 47.5 g/L glutaric acid (neutralized), knockout experiment (Table 14)
[16] = strain GLUT4-4, M9 + 47.5 g/L glutaric acid (neutralized with sodium hydroxide)
[17] = strain GLUT4-10, M9 + 47.5 g/L glutaric acid (neutralized with sodium hydroxide)
[18] = strain GLUT5-4, M9 + 47.5 g/L glutaric acid (neutralized with sodium hydroxide)
[19] = strain GLUT5-5, M9 + 47.5 g/L glutaric acid (neutralized with sodium hydroxide)
[20] = strain GLUT6-4, M9 + 47.5 g/L glutaric acid (neutralized with sodium hydroxide)
[21] = strain GLUT6-5, M9 + 47.5 g/L glutaric acid (neutralized with sodium hydroxide)
[22] = strain GLUT6-10, M9 + 47.5 g/L glutaric acid (neutralized with sodium hydroxide)
[23] = strain GLUT7-2, M9 + 47.5 g/L glutaric acid (neutralized with sodium hydroxide)
[24] = strain GLUT7-6, M9 + 47.5 g/L glutaric acid (neutralized with sodium hydroxide)
[25] = strain GLUT7-7, M9 + 47.5 g/L glutaric acid (neutralized with sodium hydroxide)
[26] = strain GLUT8-5, M9 + 47.5 g/L glutaric acid (neutralized with sodium hydroxide)
[27] = strain GLUT8-6, M9 + 47.5 g/L glutaric acid (neutralized with sodium hydroxide)
[28] = strain GLUT8-6, M9 + 47.5 g/L glutaric acid (neutralized), knockout experiment (Table 14)
[29] = strain GLUT8-9, M9 + 47.5 g/L glutaric acid (neutralized with sodium hydroxide)
[30] = strain MG1655, M9 + 47.5 g/L glutaric acid (neutralized with sodium hydroxide)
[31] = strain MG1655, M9 + 47.5 g/L glutaric acid (neutralized), knockout experiment (Table 14)
[32] = strain MG1655 kgtP::kan, M9 + 47.5 g/L glutaric acid (neutralized)
[33] = strain MG1655 proV::kan, M9 + 47.5 g/L glutaric acid (neutralized)
[34] = strain MG1655 ybjL::kan, M9 + 47.5 g/L glutaric acid (neutralized)
[35] = strain MG1655 ΔkgtP proV::kan, M9 + 47.5 g/L glutaric acid (neutralized)
[36] = strain MG1655 ΔkgtP sspA::kan, M9 + 47.5 g/L glutaric acid (neutralized)
[37] = strain MG1655 ΔkgtP ybjL::kan, M9 + 47.5 g/L glutaric acid (neutralized)
[38] = strain MG1655 ΔkgtP ΔproV ybjL::kan, M9 + 47.5 g/L glutaric acid (neutralized)

SMILES: O=C(O)CCCC(=O)O [glutaric acid]
- mean growth rate μ [1, 3]: 0.304 h⁻¹
- mean lag time tlag [1, 3]: 5.1 h
- mean growth rate μ [1, 4]: 0.278 h⁻¹
- mean lag time tlag [1, 4]: 4.6 h
- mean growth rate μ [1, 5]: 0.319 h⁻¹
- mean lag time tlag [1, 5]: 6.4 h
- mean growth rate μ [1, 6]: 0.458 h⁻¹
- mean lag time tlag [1, 6]: 11.3 h
- mean growth rate μ [1, 7]: 0.442 h⁻¹
- mean lag time tlag [1, 7]: 10.8 h
- mean growth rate μ [1, 8]: 0.276 h⁻¹
- mean lag time tlag [1, 8]: 6.8 h
- mean growth rate μ [1, 9]: 0.298 h⁻¹
- mean lag time tlag [1, 9]: 6.5 h
- mean growth rate μ [1, 10]: 0.378 h⁻¹
- mean lag time tlag [1, 10]: 6.5 h
- mean growth rate μ [1, 11]: 0.284 h⁻¹
- mean lag time tlag [1, 11]: 5.6 h
- mean growth rate μ [1, 12]: 0.277 h⁻¹
- mean lag time tlag [1, 12]: 5.6 h
- mean growth rate μ [1, 13]: 0.324 h⁻¹
- mean lag time tlag [1, 13]: 8.3 h
- mean growth rate μ [1, 14]: 0.279 h⁻¹
- mean lag time tlag [1, 14]: 6.2 h
- mean growth rate μ [1, 15]: 0.312 h⁻¹
- mean lag time tlag [1, 15]: 7.1 h
- mean growth rate μ [1, 16]: 0.287 h⁻¹
- mean lag time tlag [1, 16]: 6.6 h
- mean growth rate μ [1, 17]: 0.297 h⁻¹
- mean lag time tlag [1, 17]: 6.9 h
- mean growth rate μ [1, 18]: 0.438 h⁻¹
- mean lag time tlag [1, 18]: 17.0 h
- mean growth rate μ [1, 19]: 0.349 h⁻¹
- mean lag time tlag [1, 19]: 14.5 h
- mean growth rate μ [1, 20]: 0.277 h⁻¹
- mean lag time tlag [1, 20]: 5.9 h
- mean growth rate μ [1, 21]: 0.300 h⁻¹
- mean lag time tlag [1, 21]: 6.5 h
- mean growth rate μ [1, 22]: 0.341 h⁻¹
- mean lag time tlag [1, 22]: 6.7 h
- mean growth rate μ [1, 23]: 0.318 h⁻¹
- mean lag time tlag [1, 23]: 6.6 h
- mean growth rate μ [1, 24]: 0.318 h⁻¹
- mean lag time tlag [1, 24]: 7.1 h
- mean growth rate μ [1, 25]: 0.283 h⁻¹
- mean lag time tlag [1, 25]: 7.8 h
- mean growth rate μ [1, 26]: 0.322 h⁻¹
- mean lag time tlag [1, 26]: 6.2 h
- mean growth rate μ [1, 27]: 0.347 h⁻¹
- mean lag time tlag [1, 27]: 7.1 h
- mean growth rate μ [1, 28]: 0.402 h⁻¹
- mean lag time tlag [1, 28]: 7.8 h
- mean growth rate μ [1, 29]: 0.345 h⁻¹
- mean lag time tlag [1, 29]: 7.4 h
- mean growth rate μ [1, 30]: 0.103 h⁻¹
- mean lag time tlag [1, 30]: 10.7 h
- mean growth rate μ [1, 31]: 0.100 h⁻¹
- mean lag time tlag [1, 31]: 10.4 h
- mean growth rate μ [1, 32]: 0.181 h⁻¹
- mean lag time tlag [1, 32]: 5.8 h
- mean growth rate μ [1, 33]: 0.085 h⁻¹
- mean lag time tlag [1, 33]: 0.6 h
- mean growth rate μ [1, 34]: 0.126 h⁻¹
- mean lag time tlag [1, 34]: 12.8 h
- mean growth rate μ [1, 35]: 0.244 h⁻¹
- mean lag time tlag [1, 35]: 6.5 h
- mean growth rate μ [1, 36]: 0.256 h⁻¹
- mean lag time tlag [1, 36]: 5.7 h
- mean growth rate μ [1, 37]: 0.213 h⁻¹
- mean lag time tlag [1, 37]: 6.0 h
- mean growth rate μ [1, 38]: 0.300 h⁻¹
- mean lag time tlag [1, 38]: 7.0 h
- tlag (lag time), mean ([2]; 10 g/L): 2.0 h
- μ (growth rate), mean ([2]; 10 g/L, M9+1% glucose, 37° C): 0.526 h⁻¹
- tlag (lag time), mean ([2]; 20 g/L): 1.9 h
- μ (growth rate), mean ([2]; 20 g/L): 0.377 h⁻¹
- tlag (lag time), mean ([2]; 30 g/L): 0.6 h
- μ (growth rate), mean ([2]; 30 g/L): 0.234 h⁻¹
- tlag (lag time), mean ([2]; 40 g/L): 0.7 h
- μ (growth rate), mean ([2]; 40 g/L): 0.132 h⁻¹
- tlag (lag time), mean ([2]; 50 g/L): 15.9 h
- μ (growth rate), mean ([2]; 50 g/L): 0.096 h⁻¹
- μ (growth rate), mean ([2]; 75 g/L): 0.000 h⁻¹
- maximum measured concentration at which exponentially growing K-12 MG1655 can grow ([2]; neutralized diacid in M9+1% glucose): 50 g/L
